Where two headings read alike, the source gives them in different places.
How the values were obtained:
[1] = molecular target: T1, AChE from Electrophorus electricus (Electrophorus electricus, UniProt O42275); assay: biochemical
T1 construct: purchased Sigma (St. Louis, MO, USA)
Experimental: AChEI activity was measured using Ellman’s method. AChE hydrolyzes the substrate ACTI into acetate and thiocholine. In a neutral and alkaline medium; thiocholine reacts with DTNB to give yellow colored 2-nitro-5-thiobenzoate, which can be detected spectrophotometrically at 405 nm. Briefly, in a 96-well plate, 25 µL of 15 mM ACTI, 125 µL of 3 mM DTNB in buffer B (50 mM Tris HCl, pH = 8, 0.1 M NaCl, 0.02 M MgCl2·6H2O), 50 µL of buffer A (50 mM Tris-HCl, PH 8, 0.1% BSA) and 25 µL of tested sample (dissolved in 25% DMSO) were mixed, and the absorbance was measured using a microplate reader (Biotek, Winooski, VT, USA) at 405 nm every 16 s ten times. Then, 25 µL of AChE (0.25 U/mL in buffer A) was added and the absorbance was measured ten times every 16 s. A solution of 25% DMSO was used as a negative control. Absorbance was plotted against time and enzyme activity was calculated from the slope of the line so obtained and expressed as a percentage compared to an assay using a buffer without any inhibitor. Fractions were tested at 400 µg/mL. To avoid any increase in absorbance due to the color of the compounds or spontaneous hydrolysis of the substrate, the absorbance before addition of the enzyme was subtracted from the absorbance after adding the enzyme.
(§1) IC50 values of isolated compounds in AChEI and scavenging of hydroxyl radical assays were calculated using Probit Analysis (SPSS Version 16.0 for Windows, SPSS Inc., Chicago, IL, USA) for five different concentrations in three independent experiments. Cell viability was expressed as a percentage of MTT reduction, assuming that the viability of cells treated with 1% DMSO as a negative control was 100%. Figures were built in Microsoft Excel 2010. All values are the mean ± SD of three independent experiments. Data were analyzed for statistical significance using one-way ANOVA, followed by Dunnet’s test as a post-hoc test with GraphPad Prism 5.0 software for Windows (Inc., San Diego, CA, USA).

[2] = Scavenging of hydroxyl radical, 2-deoxyribose degradation assay; details: for % Inhibition of deoxyribose degradation, Site-Specific / % Inhibition of deoxyribose degradation, Non Site-Specific: 300 µM; for % Inhibition of deoxyribose degradation, Non Site-Specific: 25 min, pH 7.4
Experimental: The inhibitory effect of bioactive compounds on deoxyribose degradation was determined by measuring the competition between deoxyribose and bioactive compounds for the hydroxyl radicals (^.OH) generated from the Fe^3+/ascorbate/EDTA/H2O2 system (referred to non-site-specific assay; the major activity measured is ^.OH scavenging) or an Fe^3+/ascorbate/H2O2 system (referred to as a site-specific assay; major activity measured is metal chelation). Both assays depend on the formation of a highly reactive hydroxyl radical, OH, by the interaction of iron ions with H2O2 through Fenton’s reaction. […] This assay was performed as previously described. Different concentrations of tested compounds were dissolved in 400 µL phosphate buffer (0.2 M, pH 7.4). Then, 50 µL of deoxyribose (60 mM), 50 µL of Na2EDTA (2 mM), 50 µL of FeCl3 (3.2 mM), 50 µL of H2O2 (60 mM) and 50 µL of ascorbic acid (2 mM) were added, and the total volume of the reaction mixture was adjusted to 1 mL with buffer. After water-bath incubation at 50 °C for 25 min, the reaction was terminated by 250 µL of trichloroacetic acid (10%, w/w). […] For site-specific hydroxyl-radical-scavenging activity, the reaction mixture was similar to the above method, except that EDTA was replaced by an equivalent volume of buffer.
as §1, with “Figures were built in Microsoft Excel 2010.” left out

neuro-2A cells [3] = assay: Protection against H2O2-induced neurotoxicity (MTT); format: cell-based, Mouse; details: for Protection against H2O2: summary Table 4; for neuroprotection against H2O2-induced neurotoxicity (in words): 6.25-100 µM, H2O2 150 µM
Experimental: (§2) Neuro-2A cell line was maintained in Eagle’s Minimum Essential medium supplemented with 10% fetal bovine serum, 1% of 100× antibiotic—antimitotic agents (containing penicillin and streptomycin) in a humid atmosphere of 5% (v/v) CO2 and 95% (v/v) air at 37 °C. Neuro-2A cells were plated in 96-well cell culture plates at a density of 3 × 10^4 cells/well for H2O2 and intracellular ROS assays and 2.5 × 10^3 cells/well for the Aβ25-35-assay.
(§3) Cell viability was determined by MTT reduction assay. Briefly, after treatment with isolated compounds, the media was replaced by fresh one after washing the cells with 100 µL PBS and 20 µL of MTT (5 mg/mL) was added to each well. After 4 h incubation at 37 °C, the state of cells was checked under microscope to confirm either cytotoxicity in H2O2 and Aβ25-35 wells or protection in positive controls and isolated compounds ones. The supernatants were aspirated carefully, and 150 µL of DMSO was added to each well to dissolve the dark blue formazan crystals. The absorbance was measured using a microplate reader at 570 nm.
H2O2 interacts with metals in the medium, producing highly cytotoxic hydroxyl radicals that induce neurotoxicity. So, active compounds are those that can scavenge free radicals and increase the cell viability. This assay was performed as previously described with slight modifications. Briefly, the concentration of H2O2 that decreased cell viability to about 50% was determined as follows: cells were cultured in a 96-well plate and after 24 h were further incubated with different concentrations of H2O2 (50, 100, 150, 200 µM) freshly prepared from 30% stock solution. After 24 h, cell viability was determined using the MTT reduction method. H2O2 at a concentration of 150 µM had the desired cytotoxicity and was used for the next step.

[4] = tested on: intracellular ROS in Neuro-2A cells; assay: Scavenging of intracellular reactive oxygen species (Bes-H2O2-AC, DFF fluorescence); format: cell-based, Mouse; details: for decrease of DFF fluorescence intensity (intracellular ROS): at 50 and 100 µM, H2O2 600 µM 30 min; for Intracellular ROS Scavenging: summary Table 4; for Intracellular ROS Scavenging: key: +: Weak activity; ++: Strong activity
Experimental: as §2
This assay was performed as previously described with some modifications. Briefly, Neuro-2A cells were seeded in 96-well Clear Fluorescence Black Plate (number 655090, Greiner Bio-one, Tokyo, Japan). Cells were treated with three different concentrations (25, 50, 100 µM) of the samples. After 2 h incubation, cells were subjected to oxidative stress using 600 µM of H2O2 for 30 min. The nucleus was stained by Hoechst 33342 (Dojindo, Kumamoto, Japan), and the amount of difluorofluorescein (DFF) released from the reaction of H2O2 and BES-H2O2-Ac was taken as an indication of the amount of intracellular H2O2 and ROS. Images of each well were acquired using an IN Cell Analyzer 1000 (GE Healthcare, Buckinghamshire, UK) using 360-nm (Hoechst 33342) and 480-nm (BES-H2O2-Ac) excitation filters and monitored through 460-nm and 535-nm emission filters, respectively. Developer software was used to analyze the images of Hoechst 33342 and BES-H2O2-Ac staining, and the resulting data were then applied to Spotfire Decision Site Client 8.2 software for visualizing the results.

neuro-2A cells [5] = assay: Protection against Aβ25-35-induced neurotoxicity (MTT); format: cell-based, Mouse; details: for neuroprotection against Aβ25-35 (in words): at the highest concentration (100 µM); for Protection against Aβ25-35: summary Table 4; for Protection against Aβ25-35: key: +: Weak activity; ++: Strong activity
Experimental: as §2, §3
Similarly, the concentration of Aβ25-35 that decreased cell viability to about 50% was determined. […] So, the cells were incubated with different concentrations of the isolated compounds (6.25, 12.5, 25, 50 and 100 µM) and EGCG as a positive control for 3 h followed by Aβ25-35 treatment for 72 h.

[6] = summary Table 4, read-out: AchEI IC50
[7] = Fe3+/ascorbate/EDTA/H2O2 system, read-out: IC50 hydroxyl radical scavenging, Non Site-Specific
[8] = Fe3+/ascorbate/H2O2 system without EDTA, read-out: IC50 hydroxyl radical scavenging, Site-Specific
[9] = Ellman's method, read-out: IC50 in the AChEI assay
[10] = summary Table 4 (values of the non site-specific assay), read-out: Hydroxyl Radical Scavenging/IC50

T1 sequence (O42275 24-633): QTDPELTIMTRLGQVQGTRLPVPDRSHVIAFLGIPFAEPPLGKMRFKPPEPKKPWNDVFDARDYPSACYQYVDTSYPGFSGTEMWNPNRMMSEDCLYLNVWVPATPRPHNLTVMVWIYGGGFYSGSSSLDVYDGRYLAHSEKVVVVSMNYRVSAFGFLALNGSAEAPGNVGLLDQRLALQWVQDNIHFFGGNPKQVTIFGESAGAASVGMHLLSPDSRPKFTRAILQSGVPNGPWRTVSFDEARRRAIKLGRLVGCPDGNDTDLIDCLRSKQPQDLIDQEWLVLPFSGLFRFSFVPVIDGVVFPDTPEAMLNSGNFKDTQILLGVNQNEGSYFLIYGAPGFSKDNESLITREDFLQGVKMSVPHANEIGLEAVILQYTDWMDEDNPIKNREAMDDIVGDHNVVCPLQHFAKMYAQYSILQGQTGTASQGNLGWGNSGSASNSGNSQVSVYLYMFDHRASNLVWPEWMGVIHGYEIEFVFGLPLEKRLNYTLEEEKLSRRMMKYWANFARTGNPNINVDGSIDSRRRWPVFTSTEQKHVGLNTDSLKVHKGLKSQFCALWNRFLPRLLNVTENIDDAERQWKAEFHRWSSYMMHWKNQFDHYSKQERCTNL

Molecule | IC50 in the AChEI assay ([1]; Ellman's method) | IC50 [1, 6] | IC50 [2, 7] | IC50 [2, 8] | Protection against H2O2 (neuro-2A cells [3]) | decrease of DFF fluorescence intensity (intracellular ROS) [4] | Intracellular ROS Scavenging [4] | further results
O=Cc1ccc(CO)o1 [5-(Hydroxymethyl)-2-furaldehyde (7), 5-(hydroxymethyl)-2-furaldehyde] | inactive | > 500 µM |  |  |  |  |  | % Inhibition of deoxyribose degradation, Site-Specific [2]: -; % Inhibition of deoxyribose degradation, Non Site-Specific [2]: 4 ± 0.3%
Nc1ncnc2c1ncn2[C@@H]1O[C@H](CO)[C@@H](O)[C@H]1O [Adenosine (15), adenosine] | inactive | > 500 µM |  |  |  |  |  | 
Oc1cc(O)c2c(c1)OC(c1ccc(O)c(O)c1)C(O)C2 (centres unmarked) [Catechin (positive control), Catechin, reference compound] |  |  | 473 ± 8.6 µM | 534 ± 19.2 µM |  |  |  | 
O=C(/C=C/c1ccc(O)c(O)c1)O[C@@H]1C[C@](O)(C(=O)O)C[C@@H](O)[C@H]1O [Chlorogenic acid (11), chlorogenic acid] | inactive | > 500 µM |  |  | ++ | significantly decrease the fluorescence intensity | ++ | 
OO [H2O2, reference compound] |  |  |  |  |  |  |  | cytotoxicity of H2O2 (neuro-2A cells [3]; 150 µM H2O2, 24 h, MTT): 48.2% ± 1.8%
O=c1cc(-c2ccc(O)c(O)c2)oc2cc(O)cc(O)c12 [Luteolin (9), luteolin] |  | > 500 µM | 753 ± 11.1 µM | 980 ± 15.8 µM | ++ | significantly decrease the fluorescence intensity | ++ | IC50 [1, 9]: > 500 µM; inhibition at 250 µM ([1]; at 250 µM): 30%; IC50 [2, 10]: 753 ± 11.1 µM; neuroprotection against Aβ25-35 (in words) (neuro-2A cells [5]): significant neuroprotection (p < 0.05); Protection against Aβ25-35 (neuro-2A cells [5]): +
COC(=O)C1(O)CC(O)C(O)C(OC(=O)C=Cc2ccc(O)c(O)c2)C1 (centres unmarked) [Methyl chlorogenate (10), methyl chlorogenate] |  | > 500 µM | 840 ± 12.4 µM | 920 ± 10.9 µM | ++ | significantly decrease the fluorescence intensity | ++ | IC50 [1, 9]: > 500 µM; inhibition at 500 µM ([1]; at 500 µM): 10%; IC50 [2, 10]: 840 ± 12.4 µM
O=c1c(O)c(-c2ccc(O)c(O)c2)oc2cc(O)cc(O)c12 [Quercetin (12), quercetin] |  |  | 672 ± 10.6 µM | 837 ± 21.6 µM | ++ | significantly decrease the fluorescence intensity | ++ | IC50 [2, 10]: 672 ± 10.6 µM; neuroprotection against Aβ25-35 (in words) (neuro-2A cells [5]): significant neuroprotection (p < 0.05); Protection against Aβ25-35 (neuro-2A cells [5]): +
CC1(C)CCC2(C)CCC3(C)C4CC=C5C(CCC(O)C5(C)C)C4(C)CCC3(C)C2C1 (stereo not drawn) [α-Glutinol (1), α-glutinol] | inactive | > 500 µM |  |  |  |  |  | neuroprotection against H2O2-induced neurotoxicity (in words) (neuro-2A cells [3]): did not show significant neuroprotection
CC1(C)CC[C@]2(C)CC[C@]3(C)C(=CC[C@@H]4[C@@]5(C)CC[C@H](O)C(C)(C)[C@@H]5CC[C@]43C)[C@@H]2C1 [β-Amyrin (2), β-amyrin] | inactive | > 500 µM |  |  |  |  |  | neuroprotection against H2O2-induced neurotoxicity (in words) (neuro-2A cells [3]): did not show significant neuroprotection; % Inhibition of deoxyribose degradation, Site-Specific [2]: -; % Inhibition of deoxyribose degradation, Non Site-Specific [2]: -
CCC(CCC(C)C1CCC2C3CC=C4CC(OC5OC(CO)C(O)C(O)C5O)CCC4(C)C3CCC12C)C(C)C (stereo not drawn) [β-Sitosterol-3-O-glucoside (5), β-sitosterol-3-O-glucoside] | inactive | > 500 µM |  |  |  |  |  | 
Aβ25-35: amyloid β peptide fragment used to induce neurotoxicity (GSNKGAIIGLM; Amyloid-beta protein 42; UniProt P05067 696-706, looked up, fragment) [reference compound] |  |  |  |  |  |  |  | cytotoxicity of Aβ25-35 (neuro-2A cells [5]; 25 µM, 72 h incubation): 55% ± 4.6%

Reference: publication PMC6272295, “In Vitro Neuroprotective Activities of Compounds from Angelica shikokiana Makino” (Molecules, 2015)
